From US20250101041A1, “POSITIVE ALLOSTERIC MODULATORS OF THE MUSCARINIC ACETYLCHOLINE RECEPTOR M4” (Vanderbilt University, priority 2022, published 2025)

Target: T1, human mAChR M4 (Homo sapiens, UniProt P08173)
T1 construct: expressed in transfected cells; host or cells: CHO-K1 (American Type Culture Collection), stably expressing hM4 and Gqi5
T1 sequence (P08173 1-479): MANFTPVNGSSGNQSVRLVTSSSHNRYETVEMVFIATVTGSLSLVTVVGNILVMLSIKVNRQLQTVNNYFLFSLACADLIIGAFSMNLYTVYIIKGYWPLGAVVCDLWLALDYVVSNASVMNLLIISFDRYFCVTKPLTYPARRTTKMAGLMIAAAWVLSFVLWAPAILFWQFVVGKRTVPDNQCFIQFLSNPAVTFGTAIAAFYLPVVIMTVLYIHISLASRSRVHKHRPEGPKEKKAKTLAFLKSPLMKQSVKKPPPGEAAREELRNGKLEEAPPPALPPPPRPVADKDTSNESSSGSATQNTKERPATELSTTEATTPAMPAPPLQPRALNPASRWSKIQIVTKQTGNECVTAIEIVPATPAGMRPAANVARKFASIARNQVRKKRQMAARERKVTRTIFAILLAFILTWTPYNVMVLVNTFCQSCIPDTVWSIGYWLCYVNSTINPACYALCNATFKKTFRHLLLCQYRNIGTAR
Test: mAChR M4 cell-based functional assay: calcium mobilization (Fluo-4, FDSS), potentiation of EC20 acetylcholine response in hM4-Gqi5 CHO-K1 cells
Settings: human M4; for Emax at 30 µM: CHO-K1, % ACh maximum at 30 μM; for EC50: potentiation of EC20 acetylcholine response, calcium mobilization
Summary of the method: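 CHO-K1 cells stably co-expressing human M4 and chimeric Gqi5, loaded with Fluo-4 AM (50 min, 37 °C). Compounds in 11-point 1:3 series added first; EC20 acetylcholine added at 144 s and again at 230 s. Calcium read on FDSS at 1 Hz; EC50 and Emax from four-parameter logistic fit of potentiated EC20 response.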

COCc1cc(=O)n2nc(N3CCc4ncc(-c5cccnc5)cc4C3)c(C)cc2n1 [Compound 1-365, 2-(methoxymethyl)-8-methyl-7-(3-(pyridin-3-yl)-7,8-dihydro-1,6-naphthyridin-6(5H)-yl)-4H-pyrimido[1,2-b] pyridazin-4-one]
Emax at 30 µM: 69% | EC50: 325 nM

Cc1cc2nccc(=O)n2nc1N1CCc2ncc(N3CCOC(c4ccccn4)C3)cc2C1 (stereo not drawn) [Compound 2-76, 8-methyl-7-(3-(2-(pyridin-2-yl)morpholino)-7,8-dihydro-1,6-naphthyridin-6(5H)-yl)-4H-pyrimido[1,2-b]pyridazin-4-one]
Emax at 30 µM: 76% | EC50: 5340 nM

COCc1cc(=O)n2nc(N3CCc4ncc(-c5ccc(F)c(F)c5)cc4C3)c(C)cc2n1 [Compound 1-330, 7-(3-(3,4-difluorophenyl)-7,8-dihydro-1,6-naphthyridin-6(5H)-yl)-2-(methoxymethyl)-8-methyl-4H-pyrimido[1,2-b] pyridazin-4-one]
Emax at 30 µM: 68% | EC50: 477 nM

Cc1cc2nccc(=O)n2nc1N1CCc2ncc(-c3ccc(C4CC4)nc3)cc2C1 [Compound 1-67, 7-(3-(6-cyclopropylpyridin-3-yl)-7,8-dihydro-1,6-naphthyridin-6(5H)-yl)-8-methyl-4H-pyrimido[1,2-b]pyridazin-4-one]
Emax at 30 µM: 80% | EC50: 328 nM

Cc1cc2nccc(=O)n2nc1N1CCc2ncc(-c3cn(C)nc3C)cc2C1 [Compound 1-2, 7-(3-(1,3-dimethyl-1H-pyrazol-4-yl)-7,8-dihydro-1,6-naphthyridin-6(5H)-yl)-8-methyl-4H-pyrimido[1,2-b]pyridazin-4-one]
Emax at 30 µM: 87% | EC50: 501 nM

Cc1ccncc1-c1cnc2c(c1)CN(c1nn3c(=O)ccnc3c(C)c1C)CC2 [Compound 1-95, 8,9-dimethyl-7-(3-(4-methylpyridin-3-yl)-7,8-dihydro-1,6-naphthyridin-6(5H)-yl)-4H-pyrimido[1,2-b]pyridazin-4-one]
Emax at 30 µM: 99% | EC50: 68 nM

Cc1cc(=O)n2nc(N3CCc4ncc(C(F)(F)F)cc4C3)c(C)c(C)c2n1 [Compound 1-33, 2,8,9-trimethyl-7-(3-(trifluoromethyl)-7,8-dihydro-1,6-naphthyridin-6(5H)-yl)-4H-pyrimido[1,2-b]pyridazin-4-one]
Emax at 30 µM: 77% | EC50: 64 nM

Cc1c(N2CCc3ncc(N4CC(C)(C)OC4=O)cc3C2)nn2c(=O)ccnc2c1C [Compound 2-150, 3-(6-(8,9-dimethyl-4-oxo-4H-pyrimido[1,2-b]pyridazin-7-yl)-5,6,7,8-tetrahydro-1,6-naphthyridin-3-yl)-5,5-dimethyloxazolidin-2-one]
Emax at 30 µM: 63% | EC50: 4380 nM

COc1c(F)cc(-c2cnc3c(c2)CN(c2nn4c(=O)ccnc4cc2C)CC3)c(C)c1F [Compound 1-444, 7-(3-(3,5-difluoro-4-methoxy-2-methylphenyl)-7,8-dihydro-1,6-naphthyridin-6(5H)-yl)-8-methyl-4H-pyrimido [1,2-b]pyridazin-4-one]
Emax at 30 µM: 93% | EC50: 131 nM

Cc1c(N2CCc3ncc(-c4ccc(C5CC5)nc4)cc3C2)nn2c(=O)cc(C(F)F)nc2c1C [Compound 1-94, 7-(3-(6-cyclopropylpyridin-3-yl)-7,8-dihydro-1,6-naphthyridin-6(5H)-yl)-2-(difluoromethyl)-8,9-dimethyl-4H-pyrimido[1,2-b]pyridazin-4-one]
Emax at 30 µM: 79% | EC50: 122 nM

Cc1cc(=O)n2nc(N3CCc4ncc(-c5ccccc5C5CC5)cc4C3)c(C)c(C)c2n1 [Compound 1-248, 7-(3-(2-cyclopropylphenyl)-7,8-dihydro-1,6-naphthyridin-6(5H)-yl)-2,8,9-trimethyl-4H-pyrimido[1,2-b]pyridazin-4-one]
Emax at 30 µM: 80% | EC50: 852 nM

Cc1c(N2CCc3ncc(-c4ccnn4C)cc3C2)nn2c(=O)ccnc2c1C [Compound 1-63, 8,9-dimethyl-7-(3-(1-methyl-1H-pyrazol-5-yl)-7,8-dihydro-1,6-naphthyridin-6(5H)-yl)-4H-pyrimido[1,2-b]pyridazin-4-one]
Emax at 30 µM: 97% | EC50: 203 nM

COc1cnccc1-c1cnc2c(c1)CN(c1nn3c(=O)ccnc3cc1C)CC2 [Compound 1-50, 7-(3-(3-methoxypyridin-4-yl)-7,8-dihydro-1,6-naphthyridin-6(5H)-yl)-8-methyl-4H-pyrimido[1,2-b]pyridazin-4-one]
Emax at 30 µM: 84% | EC50: 685 nM

Cc1ncc(-c2cnc3c(c2)CN(c2nn4c(=O)ccnc4cc2C)CC3)o1 [Compound 1-397, 8-methyl-7-(3-(2-methyloxazol-5-yl)-7,8-dihydro-1,6-naphthyridin-6(5H)-yl)-4H-pyrimido[1,2-b]pyridazin-4-one]
Emax at 30 µM: 87% | EC50: 1080 nM

Cc1cc(Cl)ncc1-c1cnc2c(c1)CN(c1nn3c(=O)ccnc3cc1C)CC2 [Compound 1-333, 7-(3-(6-chloro-4-methylpyridin-3-yl)-7,8-dihydro-1,6-naphthyridin-6(5H)-yl)-8-methyl-4H-pyrimido[1,2-b]pyridazin-4-one]
Emax at 30 µM: 69% | EC50: 247 nM

Cc1c(N2CCc3ncc(-c4ccccc4OC(F)(F)F)cc3C2)nn2c(=O)ccnc2c1C [Compound 1-265, 8,9-dimethyl-7-(3-(2-(trifluoromethoxy)phenyl)-7,8-dihydro-1,6-naphthyridin-6(5H)-yl)-4H-pyrimido[1,2-b] pyridazin-4-one]
Emax at 30 µM: 61% | EC50: 929 nM

COCc1cc(=O)n2nc(N3CCc4ncc(-c5ccc(OC(F)F)nc5)cc4C3)c(C)cc2n1 [Compound 1-374, 7-(3-(6-(difluoromethoxy)pyridin-3-yl)-7,8-dihydro-1,6-naphthyridin-6(5H)-yl)-2-(methoxymethyl)-8-methyl-4H-pyrimido[1,2-b]pyridazin-4-one]
Emax at 30 µM: 67% | EC50: 227 nM

Cc1cc(=O)n2nc(N3CCc4ncc(-c5ccc(C)c(F)c5)cc4C3)c(C)cc2n1 [Compound 1-206, 7-(3-(3-fluoro-4-methylphenyl)-7,8-dihydro-1,6-naphthyridin-6(5H)-yl)-2,8-dimethyl-4H-pyrimido[1,2-b]pyridazin-4-one]
Emax at 30 µM: 71% | EC50: 409 nM

Cc1cc(F)c(F)c(-c2cnc3c(c2)CN(c2nn4c(=O)cc(C)nc4cc2C)CC3)c1 [Compound 1-252, 7-(3-(2,3-difluoro-5-methylphenyl)-7,8-dihydro-1,6-naphthyridin-6(5H)-yl)-2,8-dimethyl-4H-pyrimido[1,2-b]pyridazin-4-one]
Emax at 30 µM: 70% | EC50: 631 nM

Cc1c(N2CCc3ncc(N4CCOC(C)(C)C4)cc3C2)nn2c(=O)cc(C(F)F)nc2c1C [Compound 2-40, 2-(difluoromethyl)-7-(3-(2,2-dimethylmorpholino)-7,8-dihydro-1,6-naphthyridin-6(5H)-yl)-8,9-dimethyl-4H-pyrimido[1,2-b]pyridazin-4-one]
Emax at 30 µM: 90% | EC50: 29 nM

Cc1cc(=O)n2nc(N3CCc4ncc(-c5cnccc5C)cc4C3)c(C)cc2n1 [Compound 1-214, 2,8-dimethyl-7-(3-(4-methylpyridin-3-yl)-7,8-dihydro-1,6-naphthyridin-6(5H)-yl)-4H-pyrimido[1,2-b] pyridazin-4-one]
Emax at 30 µM: 82% | EC50: 139 nM

[2H]C1([2H])Cc2ncc(Nc3cc(C)ncc3F)cc2C([2H])([2H])N1c1nn2c(=O)ccnc2cc1C [Compound 2-162, 7-(3-((5-fluoro-2-methylpyridin-4-yl)amino)-7,8-dihydro-1,6-naphthyridin-6(5H)-yl-5,5,7,7-d4)-8-methyl-4H-pyrimido[1,2-b]pyridazin-4-one]
Emax at 30 µM: 96% | EC50: 16 nM

COc1cncc(-c2cnc3c(c2)CN(c2nn4c(=O)cc(C)nc4cc2C)CC3)c1 [Compound 1-70, 7-(3-(5-methoxypyridin-3-yl)-7,8-dihydro-1,6-naphthyridin-6(5H)-yl)-2,8-dimethyl-4H-pyrimido[1,2-b]pyridazin-4-one]
Emax at 30 µM: 92% | EC50: 274 nM

Cc1c(N2CCc3ncc(C(F)(F)F)cc3C2C)nn2c(=O)ccnc2c1C (single isomer, unassigned) [Compound 1-385, 8,9-dimethyl-7-(5-methyl-3-(trifluoromethyl)-7,8-dihydro-1,6-naphthyridin-6(5H)-yl)-4H-pyrimido[1,2-b] pyridazin-4-one]
Emax (%)* (% ACh maximum at 30 μM): 42% | EC50: 1730 nM

Cc1c(N2CCc3ncc(-c4cnn(-c5ccccc5F)c4)cc3C2)nn2c(=O)cc(C(F)F)nc2c1C [Compound 1-165, 2-(difluoromethyl)-7-(3-(1-(2-fluorophenyl)-1H-pyrazol-4-yl)-7,8-dihydro-1,6-naphthyridin-6(5H)-yl)-8,9-dimethyl-4H-pyrimido[1,2-b]pyridazin-4-one]
Emax at 30 µM: 47%

Cc1cncc(-c2cnc3c(c2)CN(c2nn4c(=O)ccnc4cc2C)CC3)c1 [Compound 1-65, 8-methyl-7-(3-(5-methylpyridin-3-yl)-7,8-dihydro-1,6-naphthyridin-6(5H)-yl)-4H-pyrimido[1,2-b]pyridazin-4-one]
Emax at 30 µM: 70% | EC50: 656 nM
